We go through one molecule from patent US4794187A, “^35 S-labelled 1.4-dihydropyridines” (Bayer Aktiengesellschaft, priority 1986, dated 1988).

The structures appear in SMILES notation.

The target in one assay is T1, skeletal muscle receptor (Homo sapiens, UniProt Q13698).
T1 construct: dissociation rate constant (at 37° C.) of 0.070±0.01 min^-1 on skeletal muscle; from tissue
In words: binding to the skeletal muscle 1,4-dihydropyridine receptor (radioligand dissociation). The conditions noted are these: 37° C., read-out: dissociation rate constant (converted).

The subject of the next assay is brain receptor. In words: binding to the brain 1,4-dihydropyridine receptor (radioligand dissociation). The conditions noted are these: 37° C.

T1 sequence (Q13698 whole entry): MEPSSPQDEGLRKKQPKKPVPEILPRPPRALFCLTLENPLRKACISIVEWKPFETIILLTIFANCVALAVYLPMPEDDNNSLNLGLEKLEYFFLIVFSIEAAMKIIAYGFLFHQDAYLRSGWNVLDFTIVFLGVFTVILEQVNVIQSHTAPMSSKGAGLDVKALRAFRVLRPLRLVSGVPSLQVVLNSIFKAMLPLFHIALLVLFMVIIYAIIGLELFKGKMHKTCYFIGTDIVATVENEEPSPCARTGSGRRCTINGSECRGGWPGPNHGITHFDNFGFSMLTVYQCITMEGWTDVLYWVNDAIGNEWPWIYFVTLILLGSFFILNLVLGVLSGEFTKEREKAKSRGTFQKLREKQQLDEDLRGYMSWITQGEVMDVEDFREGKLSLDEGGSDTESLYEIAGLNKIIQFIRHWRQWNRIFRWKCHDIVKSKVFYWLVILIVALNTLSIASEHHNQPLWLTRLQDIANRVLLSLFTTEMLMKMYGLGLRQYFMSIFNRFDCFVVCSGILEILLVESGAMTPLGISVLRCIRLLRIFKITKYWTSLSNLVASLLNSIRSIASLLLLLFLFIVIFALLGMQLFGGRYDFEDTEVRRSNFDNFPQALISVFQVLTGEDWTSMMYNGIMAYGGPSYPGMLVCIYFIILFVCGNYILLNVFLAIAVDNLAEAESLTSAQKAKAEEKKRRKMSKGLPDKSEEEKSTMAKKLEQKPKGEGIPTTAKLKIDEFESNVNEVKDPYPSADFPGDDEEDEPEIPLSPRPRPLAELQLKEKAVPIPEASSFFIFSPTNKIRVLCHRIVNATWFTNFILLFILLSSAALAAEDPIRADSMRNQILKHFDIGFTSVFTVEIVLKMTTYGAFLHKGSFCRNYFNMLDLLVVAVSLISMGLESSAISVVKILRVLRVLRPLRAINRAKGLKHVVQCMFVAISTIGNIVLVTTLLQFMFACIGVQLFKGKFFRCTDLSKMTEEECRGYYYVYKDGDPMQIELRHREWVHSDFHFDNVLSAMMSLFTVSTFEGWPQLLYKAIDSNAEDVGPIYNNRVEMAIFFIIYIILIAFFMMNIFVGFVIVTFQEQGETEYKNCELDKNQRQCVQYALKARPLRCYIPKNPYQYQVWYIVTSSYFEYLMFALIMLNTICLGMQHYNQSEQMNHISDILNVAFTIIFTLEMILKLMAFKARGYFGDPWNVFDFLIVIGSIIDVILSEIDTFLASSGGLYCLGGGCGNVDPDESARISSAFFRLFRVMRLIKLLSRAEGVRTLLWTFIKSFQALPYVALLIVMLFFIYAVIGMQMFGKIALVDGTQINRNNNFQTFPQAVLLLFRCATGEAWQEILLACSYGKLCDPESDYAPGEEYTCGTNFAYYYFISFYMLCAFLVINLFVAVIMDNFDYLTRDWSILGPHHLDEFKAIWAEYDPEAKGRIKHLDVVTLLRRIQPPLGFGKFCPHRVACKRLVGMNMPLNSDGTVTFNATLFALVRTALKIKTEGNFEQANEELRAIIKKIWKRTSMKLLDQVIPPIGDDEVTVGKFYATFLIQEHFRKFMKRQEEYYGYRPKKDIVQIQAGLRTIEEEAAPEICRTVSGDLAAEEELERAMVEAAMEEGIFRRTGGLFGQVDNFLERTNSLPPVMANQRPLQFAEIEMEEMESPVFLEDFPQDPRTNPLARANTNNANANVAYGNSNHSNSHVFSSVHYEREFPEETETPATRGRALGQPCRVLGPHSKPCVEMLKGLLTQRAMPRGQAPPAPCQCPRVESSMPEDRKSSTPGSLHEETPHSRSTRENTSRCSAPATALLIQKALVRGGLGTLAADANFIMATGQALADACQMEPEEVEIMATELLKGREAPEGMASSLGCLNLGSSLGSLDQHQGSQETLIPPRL
T1 sequence (P54289 25-957 partner limits assumed): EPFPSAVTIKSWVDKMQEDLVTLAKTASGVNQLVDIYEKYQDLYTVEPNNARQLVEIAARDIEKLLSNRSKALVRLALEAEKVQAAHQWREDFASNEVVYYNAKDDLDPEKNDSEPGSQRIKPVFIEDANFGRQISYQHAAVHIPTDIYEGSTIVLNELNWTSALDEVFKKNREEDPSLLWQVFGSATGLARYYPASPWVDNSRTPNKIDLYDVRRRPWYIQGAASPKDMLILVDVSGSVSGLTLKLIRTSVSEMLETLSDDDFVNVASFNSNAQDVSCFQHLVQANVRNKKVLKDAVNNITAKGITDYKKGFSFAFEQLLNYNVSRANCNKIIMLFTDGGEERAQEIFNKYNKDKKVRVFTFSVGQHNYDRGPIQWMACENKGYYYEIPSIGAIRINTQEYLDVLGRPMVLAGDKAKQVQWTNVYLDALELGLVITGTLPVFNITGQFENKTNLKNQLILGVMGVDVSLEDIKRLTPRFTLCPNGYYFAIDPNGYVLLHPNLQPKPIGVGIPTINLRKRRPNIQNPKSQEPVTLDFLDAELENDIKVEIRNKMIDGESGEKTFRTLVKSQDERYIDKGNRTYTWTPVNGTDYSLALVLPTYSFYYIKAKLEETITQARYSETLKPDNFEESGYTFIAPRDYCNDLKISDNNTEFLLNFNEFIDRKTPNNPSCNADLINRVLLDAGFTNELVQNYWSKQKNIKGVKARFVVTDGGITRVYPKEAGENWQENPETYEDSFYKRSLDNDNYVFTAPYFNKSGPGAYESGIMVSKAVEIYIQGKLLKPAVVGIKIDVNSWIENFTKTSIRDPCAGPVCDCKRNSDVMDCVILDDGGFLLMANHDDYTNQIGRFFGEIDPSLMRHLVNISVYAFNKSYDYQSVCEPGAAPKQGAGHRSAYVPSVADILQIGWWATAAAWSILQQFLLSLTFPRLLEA
T1 sequence (P54289 958-1103 partner limits assumed): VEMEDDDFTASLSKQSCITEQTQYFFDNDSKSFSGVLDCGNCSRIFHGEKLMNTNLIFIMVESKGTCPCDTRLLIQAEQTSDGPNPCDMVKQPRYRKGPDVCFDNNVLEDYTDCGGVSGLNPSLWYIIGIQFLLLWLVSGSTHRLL
T1 sequence (Q02641 whole entry partner): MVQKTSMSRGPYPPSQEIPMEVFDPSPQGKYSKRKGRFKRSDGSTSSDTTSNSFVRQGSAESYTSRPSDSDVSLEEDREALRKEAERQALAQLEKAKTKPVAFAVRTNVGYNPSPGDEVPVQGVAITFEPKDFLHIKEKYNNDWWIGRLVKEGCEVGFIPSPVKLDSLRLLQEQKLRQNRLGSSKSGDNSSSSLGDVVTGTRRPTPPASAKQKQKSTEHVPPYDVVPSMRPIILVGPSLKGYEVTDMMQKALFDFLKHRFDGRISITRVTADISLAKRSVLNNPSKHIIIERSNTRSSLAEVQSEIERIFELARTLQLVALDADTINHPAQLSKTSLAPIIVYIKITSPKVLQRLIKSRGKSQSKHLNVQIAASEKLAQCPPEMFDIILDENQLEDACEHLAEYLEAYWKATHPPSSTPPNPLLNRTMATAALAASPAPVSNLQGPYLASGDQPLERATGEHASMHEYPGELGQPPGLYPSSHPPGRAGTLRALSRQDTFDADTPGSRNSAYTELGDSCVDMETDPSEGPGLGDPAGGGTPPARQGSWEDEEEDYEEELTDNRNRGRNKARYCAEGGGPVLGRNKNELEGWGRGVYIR
T1 sequence (Q06432 whole entry partner): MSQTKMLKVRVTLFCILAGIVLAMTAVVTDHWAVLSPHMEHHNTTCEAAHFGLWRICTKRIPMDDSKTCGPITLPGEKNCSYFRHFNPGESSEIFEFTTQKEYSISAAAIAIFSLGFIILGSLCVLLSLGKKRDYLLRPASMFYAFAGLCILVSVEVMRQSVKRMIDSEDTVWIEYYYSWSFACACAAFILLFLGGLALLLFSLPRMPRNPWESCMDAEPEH

Take `CCOC(=O)C1=C(C)NC(C)=C(C(=O)OCCNC(=O)[C@H](CC[35S]C)NC(=O)OC(C)(C)C)C1c1ccccc1C(F)(F)F` (some centres unmarked) [Example 1]: at skeletal muscle receptor, the koff was 0.00117 s⁻¹. Besides, the dissociation rate constant in the assay on brain receptor was found to be 0.02 min⁻¹.
